Data as given in publication PMC8362126, “Proteolysis Targeting Chimera (PROTAC) for Macrophage Migration Inhibitory Factor (MIF) Has Anti‐Proliferative Activity in Lung Cancer Cells” (Angewandte Chemie (International Ed. in English), 2021).
“Also recorded” adds a separate entry of the source.

How the values were obtained:
MIF = target: T1, MIF (Homo sapiens, UniProt P14174); experiment: MIF catalyzed 4-HPP tautomerization assay; type: biochemical; conditions: for IC50: 4-HPP conversion assay; for Ki: MIF catalyzed 4-HPP tautomerization, n=3
T1 sequence (P14174 2-115 limits assumed): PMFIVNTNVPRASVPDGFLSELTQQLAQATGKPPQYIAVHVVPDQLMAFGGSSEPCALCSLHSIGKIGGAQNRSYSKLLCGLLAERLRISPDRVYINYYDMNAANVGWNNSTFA
Protocol: S2. MIF Tautomerase activity IC50 study
The protocol for measuring inhibition of MIF tautomerase enzyme activity and enzyme kinetics was described previously.[8] Briefly, 180 µL of a 500 nM MIF solution in boric acid buffer (435 mM, pH 6.2) was mixed with 10 µL of a 20 mM EDTA solution in demiwater and 10 µL of a solution of the desired compound dissolved in DMSO or blanc DMSO. This mixture was pre-incubated at room temperature for 10 min. Next, 50 µL of this mixture was mixed with 50 µL of a 1 mM 4-HPP solution in ammonium acetate buffer (50 mM, pH 6.0). Subsequently, MIF tautomerase activity was monitored by measuring the increase of UV absorbance at 306 nm over time. MIF tautomerase activity in the presence a blank DMSO dilution was set to 100% enzyme activity. Non-catalyzed conversion of the substrate in absence of MIF was set to 0%.
Data from the first three minutes were used to calculate the initial velocities. All experiments were repeated three times and calculations were performed with the program GraphPad Prism.
Table S1. 4-HPP conversion assay results of MIF PROTACs
(also on this page, place not known: p rotocol previously. subs trate log [MD-1] (10^-6 M) Activity of MIF tautomerase(%) -2 -1 0 1 2 0 50 100 log [MD-2] (10^-6 M) Activity of MIF tautomerase(%) -2 -1 0 1 2 0 50 100)

A549 cells = experiment: CyQUANT cell proliferation assay; type: cell-based, human; conditions: 72 hours; for effect on cell proliferation: concentrations up to 20 μM
Protocol: S8. Cell growth, cell cycle and pERK signaling study
Cell proliferation was measured with the CyQUANT® Direct Cell Proliferation Assay Kit (Thermo Fisher, #C35011). A549 cells were cultured in 96-well plates at a density of 1,000 cells/well and treated with different concentrations of MIF PROTAC (0.02-20 μM) for 72 h.
Cells were incubated with detection reagent (100 μL) for 60 min at 37 °C with 5% CO2. The fluorescence of each well was read at 485/535nm by plate reader (BioTek).
Figure S8. Cells were seeded with a density of 1000 cells per well in a 96-well plate. After overnight incubation, the cells were treated with various concentration of MD13 for 72 hours.
The resulting cells were quantified by CyQUANT® cell proliferation assays and compared with the vehicle (DMSO) control (n=3). […]
(also on this page, place not known: (0.02 -20 CO 2. (20 µM) 4 (20 µM) µM 20 µM 0.01 µM 0.08 µM 0.74 µM 6.7 µM 20 µM 0 50 100 Cell (%) H441 n.s. * * ** *** * n.s. MD15 96 -well MD13 proliferation control 96 -well round - 2 3) […]
(1 picture or pasted object on this page, not shown here)

ERK phosphorylation = ERK phosphorylation by western blot; type: cell-based, human; conditions: A549, 2 μM; for effect on pERK levels: 3 and 4 for 24 h, MD15 for 6, 24 or 48 h
Protocol: The effect of treatment with MIF‐directed PROTAC MD13 on MIF‐related signaling pathways was investigated by assessment of ERK phosphorylation using western blot analysis. […] Thus treatment with the MIF‐directed PROTAC MD13 inhibits ERK phosphorylation as a MIF‐related signaling event. […]
ERK signaling pathway study. A549 cells (2x10^5 cells per well) were seeded into each well of a 6-well plate with 2 mL RPMI-1640 medium containing 10% FBS (Costar Europe, Badhoevedorp, The Netherlands), and 1% penicillin/streptomycin solution (Corning). After overnight culturing, the cells were treated with MD13, MD15, or DMSO for the time indicated.
After that, cells were lysed by RIPA buffer containing 1× PhosSTOP and protease inhibitor (PI) cocktail (Roche, Mannheim, Germany). The BCA Protein Assay Kit (Pierce, Rockford IL, USA) was used to determine the protein concentration. 30 µg protein was separated by a pre-cast 10% NuPAGE Bis-Tris gel (Invitrogen, USA) and then transferred to a polyvinylidene difluoride (PVDF) membrane. After blocking with 5% of skimmed milk for 1 hour at room temperature and incubation with the appropriate primary antibody (pERK, #9101, Cell Signaling, 1:1000; GAPDH, #97166, Cell Signaling, 1:10000) overnight at 4 °C, the membrane was treated with an HRP-conjugated secondary goat anti-rabbit antibody (#P0448, Dako, 1:2000) or rabbit anti-mouse antibody (#P0260, Dako, 1:2000) at room temperature for 1 hour.
The protein bands were visualized with enhanced chemiluminescence (ECL) solution (GE Healthcare). The figures were quantified with imageJ software based on grayscale. […]

SMILES: O=C1CCC(N2C(=O)c3cccc(NCCCCCCCC(=O)Nc4ccc(N5Cc6ccc(O)cc6OC5=O)cc4)c3C2=O)C(=O)N1 (centres unmarked) [MD13]
- IC50 (MIF): 106 ± 7 nM
- Ki (MIF): 71 ± 5 nM
- inhibition at 20 µM (A549 cells; Homo sapiens, 20 μM, 2D culture): ~50%
- inhibition at 2 µM (ERK phosphorylation; Homo sapiens, 24-hour treatment): ~50%

SMILES: CN1C(=O)CCC(N2C(=O)c3cccc(NCCCCCCCC(=O)Nc4ccc(N5Cc6ccc(O)cc6OC5=O)cc4)c3C2=O)C1=O (centres unmarked) [MD15]
- IC50 (MIF): 83 ± 18 nM
- Ki (MIF): 55 ± 12 nM
- effect on cell proliferation (A549 cells): almost no inhibition; also recorded: no or little effect
- effect on pERK levels (ERK phosphorylation): no significant decrease

SMILES: COc1ccc(N2Cc3ccc(O)cc3OC2=O)cc1OC [compound 3]
- Ki (MIF): 103 ± 10 nM
- effect on cell proliferation (A549 cells): no effect; also recorded: no or little effect
- effect on pERK levels (ERK phosphorylation): no significant decrease
